Marks after values point to notes of the source that are not given here. Positions of bridges follow the written chain, without caps; N, C: chain ends. Residues, ends and D or L forms follow the SMILES beside them.
What was measured:
Type in all cases: in vivo, human
[1] = Linaclotide food effect study: 24-hour stool recovery; details: following 7 days of dosing at 300 ug per day, both fed and fasted conditions; predominately as a major linaclotide metabolite
Experimental: As for the 24-hour stool results, approximately 3 percent of a single dose of linaclotide was recovered on average following 7 days of dosing at 300 ug per day under both fed and fasted conditions. The recovery was predominately in the form of a major linaclotide metabolite.

[2] = tested on: healthy volunteers; assay: Linaclotide food effect study: pharmacodynamic effect on bowel habits under fed vs fasted conditions
Experimental: The randomized, open-label, two-period, two-sequence, crossover trial of oral linaclotide in healthy volunteers tested under fasted or fed conditions summarized herein was undertaken to determine if linaclotide is susceptible to a food effect. The study consisted of 4 stages: an 8-day to 15-day Screening Stage, two 15- to 16-day Crossover Periods (1 and 2), and a 21-day Washout Stage which was to occur between Crossover Periods 1 and 2. The doses tested in this study were 300 ug and a 1-day dose of 3000 ug at the end of Crossover Periods 1 and 2.
The study consisted of 4 stages: an 8-day to 15-day Screening Stage which was to take place at home and determine eligibility, two 15- to 16-day stages (Crossover Periods 1 and 2) which were to take place in a Phase 1 unit, and a 21-day Washout Stage which was to take place at home and occur between Crossover Periods 1 and 2. The individual study Stages are detailed below.
Eligible subjects were entered into the Phase 1 unit and were randomized to 1 of 2 Treatment Sequences. Sequence 1 (Fed-Fasted): During Crossover Period 1, linaclotide was to be administered immediately after a high-fat breakfast (the fed condition); during Crossover Period 2, linaclotide was to be administered after a 10-hour fast (the fasted condition). Sequence 2 (Fasted-Fed): During Crossover Period 1, linaclotide was to be administered under the fasted condition; during Crossover Period 2, linaclotide was to be administered under the fed condition.
Crossover Period 1 lasted for 15 days and Crossover Period 2 started on Day 35, immediately after the 21-day Washout Stage, and lasted for 16 days. Subjects were to record their bowel habits in their BHD and ingest their meals at the time determined by their randomization sequence. At a specified time on each day, the information in the BHD was to be reviewed by the site staff to insure appropriate completion.
(§1) During the Pretreatment Phase of each Crossover Period, subjects were not to receive study drug. On Day 8 of Crossover Period 1 and Day 43 of Crossover Period 2, subjects started the Treatment Phase and were to receive 300 ug linaclotide once daily for a total of 7 days. On Day 14 and 15 of Crossover Period 1, blood was to be drawn to assay for linaclotide and its active metabolite. After the study procedures were completed on Day 15, subjects were discharged home with instructions to follow the same outpatient diet that they followed during the Screening Stage and to return to the Phase 1 unit on Day 35 for Crossover Period 2. On Day 50 of Crossover Period 2, subjects were to receive a single oral dose of 3000 ug linaclotide and were discharged from the Phase 1 unit on Day 51. After subjects received the 3000 ug dose, blood was to be drawn on Day 50 and 51 to assay for linaclotide and linaclotide metabolites.
Linaclotide was to be administered at the same time each morning with 240 cc (8 oz) of water; food was to be withheld for approximately 4 hr after dosing, and additional water was to be withheld from 1 hour before linaclotide administration until 1 hour after dosing. Under the fed condition, subjects were required to start and complete a high-fat breakfast during the 30 minutes before linaclotide administration. Under the fasted condition, linaclotide was to be administered following an overnight fast.
All meals and meal times were standardized during Crossover Periods 1 and 2 with the total daily calorie, fat, and fiber intake the same for each diet condition (fed and fasted). The daily quantity of these nutrients was based on the “United States Department of Agriculture (USDA) Dietary Recommendations for Americans.” Each subject received approximately 2000 total calories per day.
Linaclotide, 300 ug, oral gelatin capsule. Linaclotide, 3000 ug (5 oral gelatin capsules of 600 ug linaclotide each), single dose.
The primary endpoint was the change from Pretreatment Phase to Treatment Phase for each Crossover Period in stool consistency on the BSFS scale. […]

[3] = Linaclotide food effect study: plasma levels of linaclotide and its metabolite; details: for Cmax / Tmax: human, plasma, po, 3000 ug, single oral dose 3000 ug, fasted
Experimental: as §1
Blood samples were to be collected at 0 hour (prior to dosing) and 0.5, 1, 2, 3, 4, 6 and 24 hours post dose on Day 14 of Crossover Period 1 and on Day 50 of Crossover Period 2, for determination of the following PK parameters for linaclotide and a metabolite of linaclotide (CCEYCCNPACTGC (SEQ ID NO: 10)) (if systemic levels of linaclotide and or the metabolite are detected): maximum observed plasma concentration (Cmax), time to maximum concentration (Tmax), area under the plasma concentration time curve (AUC0-t), area under the plasma concentration time curve extrapolated to infinity (AUC0-∞), clearance relative to bioavailability (CL/F), apparent volume of distribution (Vd/F), apparent terminal half life (t1/2).

[4] = 300 ug once daily, Fasted, last 4 days of treatment
[5] = 300 ug once daily, Fasted, over 7 days of treatment
[6] = 300 ug once daily, Fed, last 4 days of treatment
[7] = 300 ug once daily, Fed, over 7 days of treatment
[8] = 300 ug once daily, last 4 days of treatment
[9] = 300 ug once daily, over 7 days of treatment

Molecule: C[C@@H]1NC(=O)[C@@H]2CCCN2C(=O)[C@H](CC(N)=O)NC(=O)[C@@H]2CSSC[C@H](N)C(=O)N[C@H]3CSSC[C@H](NC1=O)C(=O)N[C@@H]([C@@H](C)O)C(=O)NCC(=O)N[C@H](C(=O)N[C@@H](Cc1ccc(O)cc1)C(=O)O)CSSC[C@H](NC(=O)[C@H](Cc1ccc(O)cc1)NC(=O)[C@H](CCC(=O)O)NC3=O)C(=O)N2 [Linaclotide, Cys Cys Glu Tyr Cys Cys Asn Pro Ala Cys Thr Gly Cys Tyr] (H-CCEYCCNPACTGCY-OH; disulfide 1-6, 2-10, 5-13)
- Recovery of a single dose in 24-hour stool, on average [1]: approximately 3%
- CSBM, Change from Pretreatment Mean (SEM) [2, 4]: 0.39 (0.293)
- SBM, Change from Pretreatment Mean (SEM) [2, 4]: 0.72 (0.419)
- BSFS Score, Change from Pretreatment Mean (SEM) ([2]; 300 ug once daily, Fasted, last 4 days of treatment (Sensitivity Analysis)): 1.97 (0.174)
- BSFS Score, Change from Pretreatment Mean (SEM) [2, 5]: 1.84 (0.177)
- CSBM, Change from Pretreatment Mean (SEM) [2, 5]: 1.00 (0.443)
- SBM, Change from Pretreatment Mean (SEM) [2, 5]: 1.50 (0.487)
- Straining Score, Change from Pretreatment Mean (SEM) [2, 5]: −0.17 (0.057)
- CSBM, Change from Pretreatment Mean (SEM) [2, 6]: 1.00 (0.647)
- SBM, Change from Pretreatment Mean (SEM) [2, 6]: 2.28 (0.704)
- BSFS Score, Change from Pretreatment Mean (SEM) ([2]; 300 ug once daily, Fed, last 4 days of treatment (Sensitivity Analysis)): 2.36 (0.230)
- BSFS Score, Change from Pretreatment Mean (SEM) [2, 7]: 2.45 (0.159)
- CSBM, Change from Pretreatment Mean (SEM) [2, 7]: 4.06 (1.181)
- SBM, Change from Pretreatment Mean (SEM) [2, 7]: 5.94 (1.503)
- Straining Score, Change from Pretreatment Mean (SEM) [2, 7]: −0.16 (0.064)
- CSBM, Difference Mean and 90 percent CI Fed-Fasted Difference [2, 8]: 0.61 (−0.49, 1.71)
- SBM, Difference Mean and 90 percent CI Fed-Fasted Difference [2, 8]: 1.56 (0.60, 2.51)
- BSFS Score, Difference Mean and 90 percent CI Fed-Fasted Difference ([2]; 300 ug once daily, last 4 days of treatment (Sensitivity Analysis)): 0.38 (−0.09, 0.86)
- BSFS Score, Difference Mean and 90% CI Fed-Fasted Difference [2, 9]: 0.61 (0.25, 0.98)^c
- CSBM, Difference Mean and 90% CI Fed-Fasted Difference [2, 9]: 3.06 (0.90, 5.21)
- SBM, Difference Mean and 90% CI Fed-Fasted Difference [2, 9]: 4.44 (2.22, 6.67)
- Straining Score, Difference Mean and 90% CI Fed-Fasted Difference [2, 9]: 0.01 (−0.12, 0.14)
- Equivalence of fasted versus fed condition on change from pretreatment BSFS Scores (primary endpoint analysis) ([2]; 300 ug, 7 days of treatment, 90 percent CI against equivalence margins of ±0.6125): did not demonstrate equivalence
- Equivalence of fed versus fasted condition on BSFS Score (Sensitivity Analysis) ([2]; 300 ug, last 4 days of treatment, 90 percent CI against equivalence margins of ±0.6125): did not fall within the equivalence margins
- Cmax ([3]; subject 001012): 0.735 ng/mL
- Tmax ([3]; subject 001012): 2 h
- Tmax ([3]; subject 001019): 0.5 h
- Cmax ([3]; subject 001019 (single measurable sample, at LLOQ)): 0.212 ng/mL

Molecule: CCEYCCNPACTGC (Synthetically generated peptide) [linaclotide metabolite, a metabolite of linaclotide]
- Plasma level of linaclotide metabolite ([3]; 300 ug linaclotide oral for 7 days of treatment, all subjects, no quantifiable levels, limit of detection=2.0 ng/ml): < 2.0 ng/mL
- Metabolite in plasma ([3]; after linaclotide dosing (300 ug and 3000 ug), any subject): No metabolite (SEQ ID NO: 10) was detected
